Patent publication US9440969B2, “Compounds and methods for kinase modulation, and indications therefor” (PLEXXIKON INC., priority 2009, dated 2016)

Columns and labels:
c-Raf-1 = c-Raf-1 (Homo sapiens, UniProt P04049); assay: c-Raf-1 kinase activity assay (AlphaScreen, biotin-MEK1 substrate); details: 100 μM ATP, 100 nM biotin-MEK1, 45 minutes at room temperature; read-out: Biochemical activity (IC50 μM) c-Raf-1
Method in brief: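 AlphaScreen detection of phospho-MEK1 uses anti-phospho-MEK1/2 antibody and donor/acceptor beads, incubated 3 h. The kinase step runs 45 min at room temperature with 0.1 ng enzyme, 100 nM biotin-MEK1 and 100 μM ATP in 50 mM HEPES pH 7.0. IC50 is derived from eight compound concentrations.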

[1] = system: COLO205 colon adenocarcinoma (B-Raf V600E mutation); assay: COLO205 cell growth inhibition (ATPlite luminescence); assay type: cell-based; details: Homo sapiens, COLO 205, 72 h, COLO205 cells, incubated 3 days with compound
Method in brief: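 Cells seeded at 6×10^4 cells/mL in line-specific medium with 10% FBS, held overnight at 37°C, then given an 8-point 1:3 compound titration (top 10 μM final) for 3 days at 37°C, 5% CO2. ATP content read by ATPlite luminescence as a cell-number proxy; IC50 fitted from luminescence versus concentration.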

Chain of c-Raf-1 (P04049 whole entry Y340D/Y341D, form open): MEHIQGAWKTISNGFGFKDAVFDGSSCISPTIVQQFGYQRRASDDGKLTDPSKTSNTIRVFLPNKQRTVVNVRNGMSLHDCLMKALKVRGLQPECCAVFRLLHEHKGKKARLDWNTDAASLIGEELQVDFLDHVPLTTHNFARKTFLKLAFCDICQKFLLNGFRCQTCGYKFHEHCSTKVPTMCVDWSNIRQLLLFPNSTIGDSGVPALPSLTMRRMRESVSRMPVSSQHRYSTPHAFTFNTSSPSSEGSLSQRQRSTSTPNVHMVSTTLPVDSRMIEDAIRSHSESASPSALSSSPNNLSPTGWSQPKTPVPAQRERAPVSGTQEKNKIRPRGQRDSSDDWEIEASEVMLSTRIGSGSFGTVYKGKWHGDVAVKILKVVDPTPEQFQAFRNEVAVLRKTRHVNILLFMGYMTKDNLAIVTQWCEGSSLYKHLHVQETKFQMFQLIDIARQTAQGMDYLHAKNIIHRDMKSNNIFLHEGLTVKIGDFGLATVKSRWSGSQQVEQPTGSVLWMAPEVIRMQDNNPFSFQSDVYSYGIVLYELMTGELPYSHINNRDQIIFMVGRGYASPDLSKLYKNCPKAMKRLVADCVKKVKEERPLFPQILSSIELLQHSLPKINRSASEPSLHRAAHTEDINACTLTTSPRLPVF

SMILES: CCCS(=O)(=O)Nc1ccc(F)c(C(=O)c2c[nH]c3ncc(-c4ccc5[nH]ncc5c4)cc23)c1F [P-0001, propane-1-sulfonic acid {2,4-difluoro-3-[5-(1H-indazol-5-yl)-1H-pyrrolo[2,3-b]pyridine-3-carbonyl]-phenyl}-amide]
- IC50 (c-Raf-1): < 0.1 µM
- IC50 [1]: < 1 µM

SMILES: O=C(c1c(F)ccc(NS(=O)(=O)c2cc(F)ccc2F)c1F)c1c[nH]c2ncc(-c3ccc4[nH]ncc4c3)cc12 [P-0002, N-{2,4-Difluoro-3-[5-(1H-indazol-5-yl)-1H-pyrrolo[2,3-b]pyridine-3-carbonyl]-phenyl}-2,5-difluoro-benzenesulfonamide]
- IC50 (c-Raf-1): < 0.1 µM
- IC50 [1]: < 1 µM

SMILES: CNC(=O)n1ncc2cc(-c3cnc4[nH]cc(C(=O)c5c(F)ccc(NS(=O)(=O)c6cc(F)ccc6F)c5F)c4c3)ccc21 [P-0003, 5-{3-[3-(2,5-Difluoro-benzenesulfonylamino)-2,6-difluoro-benzoyl]-1H-pyrrolo[2,3-b]pyridin-5-yl}-indazole-1-carboxylic acid methylamide]
- IC50 (c-Raf-1): < 0.1 µM
- IC50 [1]: < 1 µM

SMILES: CC(=O)n1cc(C(=O)c2c(F)ccc(NS(=O)(=O)c3cc(F)ccc3F)c2F)c2cc(-c3ccc4c(cnn4C(C)=O)c3)cnc21 [P-0004, N-{3-[1-Acetyl-5-(1-acetyl-1H-indazol-5-yl)-1H-pyrrolo[2,3-b]pyridine-3-carbonyl]-2,4-difluoro-phenyl}-2,5-difluoro-benzenesulfonamide]
- IC50 (c-Raf-1): < 0.1 µM
- IC50 [1]: < 1 µM

SMILES: CC(=O)n1ncc2cc(-c3cnc4[nH]cc(C(=O)c5c(F)ccc(NS(=O)(=O)c6cc(F)ccc6F)c5F)c4c3)ccc21 [P-0005, N-{3-[5-(1-Acetyl-1H-indazol-5-yl)-1H-pyrrolo[2,3-b]pyridine-3-carbonyl]-2,4-difluoro-phenyl}-2,5-difluoro-benzenesulfonamide]
- IC50 (c-Raf-1): < 0.1 µM
- IC50 [1]: < 1 µM

SMILES: CC(=O)N(c1ccc(F)c(C(=O)c2cn(C(C)=O)c3ncc(-c4ccc5c(cnn5C(C)=O)c4)cc23)c1F)S(=O)(=O)c1cc(F)ccc1F [P-0006, N-Acetyl-N-{3-[1-acetyl-5-(1-acetyl-1H-indazol-5-yl)-1H-pyrrolo[2,3-b]pyridine-3-carbonyl]-2,4-difluoro-phenyl}-2,5-difluoro-benzenesulfonamide]
- IC50 (c-Raf-1): < 0.1 µM
- IC50 [1]: < 1 µM

SMILES: CCCS(=O)(=O)Nc1ccc(F)c(C(=O)c2c[nH]c3ncc(-c4ccc5c(cnn5C(C)=O)c4)cc23)c1F [P-0007, propane-1-sulfonic acid {3-[5-(1-acetyl-1H-indazol-5-yl)-1H-pyrrolo[2,3-b]pyridine-3-carbonyl]-2,4-difluoro-phenyl}-amide]
- IC50 (c-Raf-1): ~0.1 µM
- IC50 [1]: < 1 µM

SMILES: CCCS(=O)(=O)Nc1ccc(F)c(C(=O)c2c[nH]c3ncc(-c4ccc5nn(C)cc5c4)cc23)c1F [P-0010, Propane-1-sulfonic acid {2,4-difluoro-3-[5-(2-methyl-2H-indazol-5-yl)-1H-pyrrolo[2,3-b]pyridine-3-carbonyl]-phenyl}-amide]
- IC50 (c-Raf-1): < 0.1 µM
- IC50 [1]: < 1 µM

SMILES: CCCS(=O)(=O)Nc1ccc(F)c(C(=O)c2c[nH]c3ncc(-c4ccc5cn(C)nc5c4)cc23)c1F [P-0011, Propane-1-sulfonic acid {2,4-difluoro-3-[5-(2-methyl-2H-indazol-6-yl)-1H-pyrrolo[2,3-b]pyridine-3-carbonyl]-phenyl}-amide]
- IC50 (c-Raf-1): < 0.1 µM
- IC50 [1]: < 1 µM

SMILES: CCCS(=O)(=O)Nc1ccc(F)c(C(=O)c2c[nH]c3ncc(-c4ccc5[nH]ccc5c4)cc23)c1F [P-0012, Propane-1-sulfonic acid {2,4-difluoro-3-[5-(1H-indol-5-yl)-1H-pyrrolo[2,3-b]pyridine-3-carbonyl]-phenyl}-amide]
- IC50 (c-Raf-1): < 0.1 µM
- IC50 [1]: < 1 µM

SMILES: CCCS(=O)(=O)Nc1ccc(F)c(C(=O)c2c[nH]c3ncc(-c4cccc5nn(C)cc45)cc23)c1F [P-0015, Propane-1-sulfonic acid {2,4-difluoro-3-[5-(2-methyl-2H-indazol-4-yl)-1H-pyrrolo[2,3-b]pyridine-3-carbonyl]-phenyl}-amide]
- IC50 (c-Raf-1): < 0.1 µM
- IC50 [1]: < 1 µM

SMILES: CCCS(=O)(=O)Nc1ccc(F)c(C(=O)c2c[nH]c3ncc(-c4ccc5c(cnn5S(C)(=O)=O)c4)cc23)c1F [P-0016, propane-1-sulfonic acid {2,4-difluoro-3-[5-(1-methanesulfonyl-1H-indazol-5-yl)-1H-pyrrolo[2,3-b]pyridine-3-carbonyl]-phenyl}-amide]
- IC50 (c-Raf-1): < 0.1 µM
- IC50 [1]: < 1 µM

SMILES: CCCS(=O)(=O)Nc1ccc(F)c(C(=O)c2c[nH]c3ncc(-c4ccc5ncsc5c4)cc23)c1F [P-0020, Propane-1-sulfonic acid [3-(5-benzothiazol-6-yl-1H-pyrrolo[2,3-b]pyridine-3-carbonyl)-2,4-difluoro-phenyl]-amide]
- IC50 (c-Raf-1): < 0.1 µM
- IC50 [1]: < 1 µM

SMILES: CCCS(=O)(=O)Nc1ccc(F)c(C(=O)c2c[nH]c3ncc(-c4ccc5[nH]cc(C)c5c4)cc23)c1F [P-0023, Propane-1-sulfonic acid {2,4-difluoro-3-[5-(3-methyl-1H-indol-5-yl)-1H-pyrrolo[2,3-b]pyridine-3-carbonyl]-phenyl}-amide]
- IC50 (c-Raf-1): < 0.1 µM
- IC50 [1]: < 1 µM

SMILES: CCCS(=O)(=O)Nc1ccc(F)c(C(=O)c2c[nH]c3ncc(-c4ccc5cncnc5c4)cc23)c1F [P-0025, Propane-1-sulfonic acid [2,4-difluoro-3-(5-quinazolin-7-yl-1H-pyrrolo[2,3-b]pyridine-3-carbonyl)-phenyl]-amide]
- IC50 (c-Raf-1): < 0.1 µM
- IC50 [1]: < 1 µM

SMILES: CCCS(=O)(=O)Nc1ccc(F)c(C(=O)c2c[nH]c3ncc(-c4cnn(C5CCNCC5)c4)cc23)c1F [P-1002, Propane-1-sulfonic acid {2,4-difluoro-3-[5-(1-piperidin-4-yl-1H-pyrazol-4-yl)-1H-pyrrolo[2,3-b]pyridine-3-carbonyl]-phenyl}-amide]
- IC50 (c-Raf-1): < 0.1 µM
- IC50 [1]: < 1 µM

SMILES: O=C(c1c(F)ccc(NS(=O)(=O)c2ccc(C(F)(F)F)cc2)c1F)c1c[nH]c2ncc(-c3cnn(C4CCNCC4)c3)cc12 [P-1004, N-{2,4-Difluoro-3-[5-(1-piperidin-4-yl-1H-pyrazol-4-yl)-1H-pyrrolo[2,3-b]pyridine-3-carbonyl]-phenyl}-4-trifluoromethyl-benzenesulfonamide]
- IC50 (c-Raf-1): < 0.1 µM
- IC50 [1]: > 1 µM

SMILES: CCCS(=O)(=O)Nc1ccc(F)c(C(=O)c2c[nH]c3ncc(-c4csc(-n5ccnc5C)n4)cc23)c1F [P-1101, Propane-1-sulfonic acid (2,4-difluoro-3-{5-[2-(2-methyl-imidazol-1-yl)-thiazol-4-yl]-1H-pyrrolo[2,3-b]pyridine-3-carbonyl}-phenyl)-amide]
- IC50 (c-Raf-1): < 0.1 µM
- IC50 [1]: < 1 µM

SMILES: Cc1ccc(-c2cnc3[nH]cc(C(=O)c4c(F)ccc(NS(=O)(=O)c5cc(F)ccc5F)c4F)c3c2)cn1 [P-1408, N-{2,4-Difluoro-3-[5-(6-methyl-pyridin-3-yl)-1H-pyrrolo[2,3-b]pyridine-3-carbonyl]-phenyl}-2,5-difluoro-benzenesulfonamide]
- IC50 (c-Raf-1): < 0.1 µM

SMILES: Cc1ncc(-c2cnc3[nH]cc(C(=O)c4c(F)ccc(NS(=O)(=O)c5cc(F)ccc5F)c4F)c3c2)cn1 [P-1503, N-{2,4-Difluoro-3-[5-(2-methyl-pyrimidin-5-yl)-1H-pyrrolo[2,3-b]pyridine-3-carbonyl]-phenyl}-2,5-difluoro-benzenesulfonamide]
- IC50 (c-Raf-1): < 0.1 µM
